Consider 16 compounds from patent publication US20210348119A1, “COMPOSITIONS AND METHODS FOR CELL CULTURE” (The United States of America as Represented By The …, priority 2018, published 2021).

Molecules are shown by their SMILES. Like-named read-outs stand apart in the source and are kept apart here.

The test relates to H9 cells. Kind of test: qHTS for survival of dissociated H9 cells (CellTiter-Glo, 24 hours after seeding). Format: cell-based, human. The source says:
FIG. 2 schematically illustrates qHTS procedure.
All the screed compounds were received pre-plated at the pre-determined concentrations. […] Curve classification is explained in Huang et al. “Chemical genomics profiling of environmental chemical modulation of human nuclear receptors” Environ. Health. Perspect.
(qHTS replaces the single test concentration by a dilution series.)

Setting [1] is: H9 cell survival normalized to 10 μM Y-27632 (taken to be 100%).
[2] abbreviates: H9 cell survival, CellTiter-Glo 24 hours after seeding; read-out: AC50 (concentration at 50% efficacy).
Setting [3] is: H9 cell survival, normalized to 10 μM Y-27632.
The mark [4] stands for this setting: Homo sapiens, H9, 24 h, H9 cell survival normalized to 10 μM Y-27632 (taken to be 100%); read-out: Max (maximum activity value from all tested concentrations).
Where [5] appears, read: Homo sapiens, H9, 24 h, H9 cell survival, CellTiter-Glo 24 hours after seeding; read-out: AC50 (concentration at 50% efficacy).
[6] abbreviates: Homo sapiens, H9, 24 h, H9 cell survival, normalized to 10 μM Y-27632; read-out: Efficacy (activity range between predicted activities at zero and infinite doses, Hill equation).
Where [7] appears, read: Homo sapiens, H9, 24 h; read-out: Efficacy (activity range between predicted activities at zero and infinite doses, Hill equation).
The mark [8] stands for this setting: Homo sapiens, H9, 24 h; read-out: Max (maximum activity value from all tested concentrations).
Setting [9] is: Homo sapiens; H9 cell survival, CellTiter-Glo 24 hours after seeding; read-out: AC50 (concentration at 50% efficacy).

As for `CCn1c(-c2nonc2N)nc2cnc(Oc3cccc(NC(=O)c4ccc(OCCN5CCOCC5)cc4)c3)cc21` [GSK-269962A], the “Max (maximum activity value from all tested concentrations)” value under setting [1] came to 133.3%. Besides, the AC50 under setting [2] stood at 11.8 µM. Also, the “Efficacy (activity range between predicted activities at zero and infinite doses, Hill equation)” value under setting [3] is listed as 106.

As for `CC1=C(C(=O)Nc2cc3cn[nH]c3cc2F)C(c2ccc(C(F)(F)F)cc2)CC(=O)N1` (centres unmarked) [GSK-429286A], the “Max (maximum activity value from all tested concentrations)” value under setting [1] is reported as 129.3%. The AC50 under setting [2] amounted to 3.32 µM. In addition, the “Efficacy (activity range between predicted activities at zero and infinite doses, Hill equation)” value under setting [3] is 126.

On to `Cc1cncc2cccc(S(=O)(=O)N3CCCN(C(=O)CN)C[C@@H]3C)c12` [Glycyl-H-1152], for which the Emax under setting [4] stood at 121%.

In the case of `Cn1c2ccccc2c2c3c(c4c5ccccc5n(CCC#N)c4c21)CNC3=O` [Go-6976], the Emax is, setting by setting: under setting [4], 49.1%; under setting [6], 37.3%. Further, under setting [5], the AC50 was determined as 4.69 µM.

Turning to `Cl.Cl.O=S(=O)(NCCNC/C=C/c1ccc(Br)cc1)c1cccc2cnccc12` [H-89], under setting [1], the “Max (maximum activity value from all tested concentrations)” value amounted to 25.95%. Besides, the AC50 under setting [2] stood at 1.87 µM. For the same compound, the “Efficacy (activity range between predicted activities at zero and infinite doses, Hill equation)” value under setting [3] is reported as 16.9.

As to `O=S(=O)(c1cccc2cnccc12)N1CCNCC1` [HA-100], the “Max (maximum activity value from all tested concentrations)” value under setting [1] is 88.17%. In addition, the AC50 under setting [2] turned out to be 7.31 µM. Moreover, the “Efficacy (activity range between predicted activities at zero and infinite doses, Hill equation)” value under setting [3] is 88.9.

With `Cl.NC(N)=NCCNS(=O)(=O)c1cccc2cnccc12` [HA-1004 hydrochloride], the “Max (maximum activity value from all tested concentrations)” value under setting [1] is 50.05%. Moreover, the AC50 under setting [2] turned out to be 5.17 µM. Also, the “Efficacy (activity range between predicted activities at zero and infinite doses, Hill equation)” value under setting [3] is 50.

With `N#Cc1cc(-c2ccnc(Nc3ccc(N4CCOCC4)cc3)n2)ccc1OC1CCOCC1` [IKK epsilon-IN-1], the “Max (maximum activity value from all tested concentrations)” value under setting [1] is on record as 28.74%. Under setting [2], the AC50 is 14.7 µM. Besides, under setting [3], the “Efficacy (activity range between predicted activities at zero and infinite doses, Hill equation)” value is 30.6.

Turning to `C/C=C(/C)C(=O)O[C@H]1C(C)=C[C@]23C(=O)[C@@H](C=C(CO)[C@@H](O)[C@]12O)[C@H]1[C@@H](C[C@H]3C)C1(C)C` [Ingenol mebutate], the Emax is 41.4% under setting [7] and 57.6% under setting [8]. For the same compound, the AC50 under setting [9] stood at 0.118 µM.

For the compound `CNc1ccc([N+](=O)[O-])c(Nc2ccc3[nH]ncc3c2)n1` [KRIBB11], under setting [1], the “Max (maximum activity value from all tested concentrations)” value is given as 72.62%. Besides, the AC50 under setting [2] came to 0.585 µM. Moreover, the “Efficacy (activity range between predicted activities at zero and infinite doses, Hill equation)” value under setting [3] was 62.1.

As to `O=C(c1ccc(/C=C/c2n[nH]c3ccccc23)cc1)N1CCNCC1` [KW-2449], the Emax runs as follows: under setting [4], 40%; under setting [6], 44.5%. In addition, the AC50 under setting [5] is 33.2 µM.

On to `O=C(NCc1cccc(O)c1)c1cc2cc(F)ccc2[nH]1` [KX1-004], for which, under setting [1], the “Max (maximum activity value from all tested concentrations)” value was 102.2%. The AC50 under setting [2] worked out at 3.29 µM. For the same compound, the “Efficacy (activity range between predicted activities at zero and infinite doses, Hill equation)” value under setting [3] is 103.

With `Cc1c[nH]c2ncnc(N3CCC(CN)(C(=O)Nc4cccc(OC(=O)N(C)C)c4)CC3)c12` [LX-7101], the Emax was 21.6% under setting [7] and 53.7% under setting [8]. Also, under setting [9], the AC50 turned out to be 2.33 µM.

In the case of `C[C@]12O[C@H](C[C@]1(O)CO)n1c3ccccc3c3c4c(c5c6ccccc6n2c5c31)CNC4=O` [Lestaurtinib], the AC50 (Homo sapiens, H9, 24 h, read-out: AC50 (concentration at 50% efficacy)) was 1.18 µM. Further, the Emax was 7.59% (Homo sapiens, H9, 24 h, read-out: Efficacy (activity range between predicted activities at zero and infinite doses, Hill equation)); 53% (Homo sapiens, H9, 24 h, read-out: Max (maximum activity value from all tested concentrations)).

Regarding `Cc1nc(N2CCN(C(=O)c3ccco3)CC2)c2c3c(sc2n1)CCCC3` [ML192], the “Max (maximum activity value from all tested concentrations)” value under setting [1] was 25.23%. For the same compound, the AC50 under setting [2] is 0.521 µM. For the same compound, the “Efficacy (activity range between predicted activities at zero and infinite doses, Hill equation)” value under setting [3] was 13.5.

On to `N#CCNC(=O)c1ccc(-c2ccnc(Nc3ccc(N4CCOCC4)cc3)n2)cc1` [Momelotinib], for which the AC50 under setting [5] was 0.935 µM.
